Read-outs that look alike come from different tables or passages of the source.
System: HCT116 cells
Experiment: In vitro cytotoxicity measured by the cell colony formation assay
Type: cell-based
Details: colonies counted after 7 days, read-out: IN VITRO ID 50 (nm) HCT116
Outline: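 Colony-forming survival was scored 7 days after a 72 h, 37 °C compound exposure followed by washout into fresh medium.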

[1] = HCT116 cells, 72 h incubation with drug, ID50 = drug concentration producing 50% inhibition of colony formation
[2] = HCT116 colony formation, 72 h drug incubation, Example 10, C-10 ester/C-7 hydroxy taxanes
[3] = HCT116 colony formation, 72 h drug incubation, Example 5, C-7 ester/C-10 hydroxy taxanes
[4] = HCT116 cells, 72 h drug incubation, ID50 = drug concentration producing 50% inhibition of colony formation

## CCOC(=O)O[C@H]1C(=O)[C@@]2(C)C([C@H](OC(=O)c3ccccc3)[C@]3(O)C[C@H](OC(=O)[C@H](O)[C@@H](NC(=O)OCC(C)C)c4ccoc4)C(C)=C1C3(C)C)[C@]1(OC(C)=O)CO[C@@H]1C[C@@H]2O (stereo partly drawn) [Compound 4636]
[1]
  IC50: < 10 nM

## CC(=O)O[C@@]12CO[C@@H]1C[C@H](O)[C@@]1(C)C(=O)[C@H](OC(=O)C3CC3)C3=C(C)[C@@H](OC(=O)[C@H](O)[C@@H](NC(=O)OCC(C)C)c4ccco4)C[C@@](O)([C@@H](OC(=O)c4ccccc4)C12)C3(C)C (stereo partly drawn) [Compound 3102]
[2]
  IC50: < 1 nM

## C/C=C/C(=O)N[C@@H](c1cccs1)[C@@H](O)C(=O)O[C@H]1C[C@@]2(O)[C@@H](OC(=O)c3ccccc3)C3[C@](C)(C(=O)[C@H](O)C(=C1C)C2(C)C)[C@@H](OC(=O)CC)C[C@H]1OC[C@@]31OC(C)=O (stereo partly drawn) [Compound 3560]
[3]
  IC50: < 1 nM

## CC(=O)OC12COC1CC(O)C1(C)C(=O)C(OC(=O)c3cccs3)C3=C(C)C(OC(=O)C(O)C(NC(=O)OC(C)(C)C)c4ccccn4)CC(O)(C(OC(=O)c4ccccc4)C21)C3(C)C (stereo not drawn) [Compound 1883]
[2]
  IC50: < 10 nM

## CC(=O)O[C@@]12CO[C@@H]1C[C@H](OC(=O)OCc1ccccc1)[C@@]1(C)C(=O)[C@H](O)C3=C(C)[C@@H](OC(=O)[C@H](O)[C@@H](NC(=O)C=C(C)C)c4ccco4)C[C@@](O)([C@@H](OC(=O)c4ccccc4)C12)C3(C)C (stereo partly drawn) [Compound 5466]
[1]
  IC50: < 1 nM

## CCOC(=O)N[C@@H](c1cccs1)[C@@H](O)C(=O)O[C@H]1C[C@@]2(O)[C@@H](OC(=O)c3ccccc3)C3[C@](C)(C(=O)[C@H](OC(=O)C4CC4)C(=C1C)C2(C)C)[C@@H](O)C[C@H]1OC[C@@]31OC(C)=O (stereo partly drawn) [Compound 4051]
[2]
  IC50: < 1 nM

## CCC(=O)O[C@H]1C[C@H]2OC[C@@]2(OC(C)=O)C2[C@H](OC(=O)c3ccccc3)[C@]3(O)C[C@H](OC(=O)[C@H](O)[C@@H](NC(=O)OC(C)(C)C)c4cccnc4)C(C)=C([C@@H](O)C(=O)[C@@]21C)C3(C)C (stereo partly drawn) [Compound 1372]
[3]
  IC50: 26.1 nM

## CCOC(=O)O[C@H]1C[C@H]2OC[C@@]2(OC(C)=O)C2[C@H](OC(=O)c3ccccc3)[C@]3(O)C[C@H](OC(=O)[C@H](O)[C@@H](NC(=O)C=C(C)C)c4ccco4)C(C)=C([C@@H](O)C(=O)[C@@]21C)C3(C)C (stereo partly drawn) [Compound 6151]
[1]
  IC50: < 1 nM

## CC(=O)O[C@@]12CO[C@@H]1C[C@H](O)[C@@]1(C)C(=O)[C@H](OC(=O)C3CC3)C3=C(C)[C@@H](OC(=O)[C@H](O)[C@@H](NC(=O)OCC(C)C)C4CC4)C[C@@](O)([C@@H](OC(=O)c4ccccc4)C12)C3(C)C (stereo partly drawn) [Compound 5232]
[2]
  IC50: < 10 nM

## CC(=O)O[C@@]12CO[C@@H]1C[C@H](O)[C@@]1(C)C(=O)[C@H](OC(=O)C3CC3)C3=C(C)[C@@H](OC(=O)[C@H](O)[C@@H](NC(=O)OC(C)(C)C)c4ccoc4)C[C@@](O)([C@@H](OC(=O)c4ccccc4)C12)C3(C)C (stereo partly drawn) [Compound 2781]
[2]
  IC50: < 1 nM

## COCC(=O)O[C@H]1C[C@H]2OC[C@@]2(OC(C)=O)C2[C@H](OC(=O)c3ccccc3)[C@]3(O)C[C@H](OC(=O)[C@H](O)[C@@H](NC(=O)OC(C)(C)C)c4ccco4)C(C)=C([C@@H](O)C(=O)[C@@]21C)C3(C)C (stereo partly drawn) [Compound 6326]
HCT116 colony formation, 72 h drug incubation, Example 15, C-7 substituted acetate/C-10 hydroxy taxanes
  IC50: < 1 nM

## COC(=O)O[C@H]1C(=O)[C@@]2(C)C([C@H](OC(=O)c3ccccc3)[C@]3(O)C[C@H](OC(=O)[C@H](O)[C@@H](NC(=O)OC(C)(C)C)c4ccco4)C(C)=C1C3(C)C)[C@]1(OC(C)=O)CO[C@@H]1C[C@@H]2O (stereo partly drawn) [Compound 2666]
[1]
  IC50: < 1 nM

## CCCC(=O)O[C@H]1C(=O)[C@@]2(C)C([C@H](OC(=O)c3ccccc3)[C@]3(O)C[C@H](OC(=O)[C@H](O)[C@@H](NC(=O)OC(C)(C)C)c4ccccn4)C(C)=C1C3(C)C)[C@]1(OC(C)=O)CO[C@@H]1C[C@@H]2O (stereo partly drawn) [Compound 0951]
[2]
  IC50: < 1 nM

## COC(=O)O[C@H]1C(=O)[C@@]2(C)C([C@H](OC(=O)c3ccccc3)[C@]3(O)C[C@H](OC(=O)[C@H](O)[C@@H](NC(=O)OC(C)(C)C)C(C)C)C(C)=C1C3(C)C)[C@]1(OC(C)=O)CO[C@@H]1C[C@@H]2O (stereo partly drawn) [Compound 2060]
[1]
  IC50: < 10 nM

## CCC(=O)O[C@H]1C[C@H]2OC[C@@]2(OC(C)=O)C2[C@H](OC(=O)c3ccccc3)[C@]3(O)C[C@H](OC(=O)[C@H](O)[C@@H](NC(=O)OC(C)(C)C)C(C)C)C(C)=C([C@@H](O)C(=O)[C@@]21C)C3(C)C (stereo partly drawn) [Compound 1434]
[3]
  IC50: < 10 nM

## C/C=C/C(=O)N[C@@H](c1ccco1)[C@@H](O)C(=O)O[C@H]1C[C@@]2(O)[C@@H](OC(=O)c3ccccc3)C3[C@](C)(C(=O)[C@H](O)C(=C1C)C2(C)C)[C@@H](OC(=O)Nc1ccccc1)C[C@H]1OC[C@@]31OC(C)=O (stereo partly drawn) [Compound 5757]
[4]
  IC50: < 10 nM

## C/C=C/C(=O)O[C@H]1C(=O)[C@@]2(C)C([C@H](OC(=O)c3ccccc3)[C@]3(O)C[C@H](OC(=O)[C@H](O)[C@@H](NC(=O)OC(C)(C)C)c4ccco4)C(C)=C1C3(C)C)[C@]1(OC(C)=O)CO[C@@H]1C[C@@H]2O (stereo partly drawn) [Compound 2379]
[2]
  IC50: < 1 nM

## CC(=O)O[C@@]12CO[C@@H]1C[C@H](OC(=O)NC(C)(C)C)[C@@]1(C)C(=O)[C@H](O)C3=C(C)[C@@H](OC(=O)[C@H](O)[C@@H](NC(=O)OC(C)(C)C)c4ccco4)C[C@@](O)([C@@H](OC(=O)c4ccccc4)C12)C3(C)C (stereo partly drawn) [Compound 5454]
[4]
  IC50: < 10 nM

## CC(=O)O[C@@]12CO[C@@H]1C[C@H](OC(=O)C=C(C)C)[C@@]1(C)C(=O)[C@H](O)C3=C(C)[C@@H](OC(=O)[C@H](O)[C@@H](NC(=O)OCC(C)C)c4ccco4)C[C@@](O)([C@@H](OC(=O)c4ccccc4)C12)C3(C)C (stereo partly drawn) [Compound 6040]
[3]
  IC50: < 10 nM

## CC(=O)O[C@@]12CO[C@@H]1C[C@H](O)[C@@]1(C)C(=O)[C@H](OC(=O)C(C)C)C3=C(C)[C@@H](OC(=O)[C@H](O)[C@@H](NC(=O)OC(C)(C)C)C4CCC4)C[C@@](O)([C@@H](OC(=O)c4ccccc4)C12)C3(C)C (stereo partly drawn) [Compound 2319]
[2]
  IC50: < 10 nM

## COC(=O)O[C@H]1C[C@H]2OC[C@@]2(OC(C)=O)C2[C@H](OC(=O)c3ccccc3)[C@]3(O)C[C@H](OC(=O)[C@H](O)[C@@H](NC(=O)OC(C)(C)C)c4ccsc4)C(C)=C([C@@H](O)C(=O)[C@@]21C)C3(C)C (stereo partly drawn) [Compound 4474]
[1]
  IC50: < 1 nM

## CC(=O)O[C@@]12CO[C@@H]1C[C@H](O)[C@@]1(C)C(=O)[C@H](OC(=O)C(C)C)C3=C(C)[C@@H](OC(=O)[C@H](O)[C@@H](NC(=O)OC(C)(C)C)c4ccncc4)C[C@@](O)([C@@H](OC(=O)c4ccccc4)C12)C3(C)C (stereo partly drawn) [Compound 2255]
[2]
  IC50: < 1 nM

## CCC(=O)O[C@H]1C[C@H]2OC[C@@]2(OC(C)=O)C2[C@H](OC(=O)c3ccccc3)[C@]3(O)C[C@H](OC(=O)[C@H](O)[C@@H](NC(=O)OC(C)(C)C)c4ccccn4)C(C)=C([C@@H](O)C(=O)[C@@]21C)C3(C)C (stereo partly drawn) [Compound 1364]
[3]
  IC50: < 10 nM

## COC(=O)O[C@H]1C[C@H]2OC[C@@]2(OC(C)=O)C2[C@H](OC(=O)c3ccccc3)[C@]3(O)C[C@H](OC(=O)[C@H](O)[C@@H](NC(=O)OC(C)(C)C)c4ccco4)C(C)=C([C@@H](O)C(=O)[C@@]21C)C3(C)C (stereo partly drawn) [Compound 4575]
[1]
  IC50: < 1 nM

## CCOC(=O)O[C@H]1C(=O)[C@@]2(C)C([C@H](OC(=O)c3ccccc3)[C@]3(O)C[C@H](OC(=O)[C@H](O)[C@@H](NC(=O)OC(C)(C)C)C(C)C)C(C)=C1C3(C)C)[C@]1(OC(C)=O)CO[C@@H]1C[C@@H]2O (stereo partly drawn) [Compound 1767]
[1]
  IC50: < 10 nM

## CC(=O)O[C@@]12CO[C@@H]1C[C@H](OC(=O)C(C)C)[C@@]1(C)C(=O)[C@H](O)C3=C(C)[C@@H](OC(=O)[C@H](O)[C@@H](NC(=O)OC(C)(C)C)c4cccs4)C[C@@](O)([C@@H](OC(=O)c4ccccc4)C12)C3(C)C (stereo partly drawn) [Compound 6333]
[3]
  IC50: < 1 nM

## CCNC(=O)O[C@H]1C(=O)[C@@]2(C)C([C@H](OC(=O)c3ccccc3)[C@]3(O)C[C@H](OC(=O)[C@H](O)[C@@H](NC(=O)OC(C)(C)C)C4CCC4)C(C)=C1C3(C)C)[C@]1(OC(C)=O)CO[C@@H]1C[C@@H]2O (stereo partly drawn) [Compound 2733]
HCT116 cells, colony formation, 72 h incubation with drug, ID50 = drug concentration producing 50% inhibition of colony formation
  IC50: < 10 nM

## C/C=C/C(=O)O[C@H]1C[C@H]2OC[C@@]2(OC(C)=O)C2[C@H](OC(=O)c3ccccc3)[C@]3(O)C[C@H](OC(=O)[C@H](O)[C@@H](NC(=O)OC(C)(C)C)c4cccs4)C(C)=C([C@@H](O)C(=O)[C@@]21C)C3(C)C (stereo partly drawn) [Compound 6686]
[3]
  IC50: < 1 nM

## CCOC(=O)N[C@@H](c1cccs1)[C@@H](O)C(=O)O[C@H]1C[C@@]2(O)[C@@H](OC(=O)c3ccccc3)C3[C@](C)(C(=O)[C@H](OC(=O)CC)C(=C1C)C2(C)C)[C@@H](O)C[C@H]1OC[C@@]31OC(C)=O (stereo partly drawn) [Compound 3370]
[2]
  IC50: < 1 nM

## CC(=O)OC12COC1CC(O)C1(C)C(=O)C(OC(=O)c3cccs3)C3=C(C)C(OC(=O)C(O)C(NC(=O)OC(C)(C)C)c4ccsc4)CC(O)(C(OC(=O)c4ccccc4)C21)C3(C)C (stereo not drawn) [Compound 1939]
[2]
  IC50: < 1 nM

## CCOC(=O)O[C@H]1C[C@H]2OC[C@@]2(OC(C)=O)C2[C@H](OC(=O)c3ccccc3)[C@]3(O)C[C@H](OC(=O)[C@H](O)[C@@H](NC(=O)OCC(C)C)c4ccsc4)C(C)=C([C@@H](O)C(=O)[C@@]21C)C3(C)C (stereo partly drawn) [Compound 4979]
[1]
  IC50: < 10 nM

## CCC(=O)O[C@H]1C[C@H]2OC[C@@]2(OC(C)=O)C2[C@H](OC(=O)c3ccccc3)[C@]3(O)C[C@H](OC(=O)[C@H](O)[C@@H](NC(=O)OC(C)(C)C)c4ccsc4)C(C)=C([C@@H](O)C(=O)[C@@]21C)C3(C)C (stereo partly drawn) [Compound 1424]
[3]
  IC50: < 1 nM

## CCC(C)(C)OC(=O)N[C@@H](c1ccco1)[C@@H](O)C(=O)O[C@H]1C[C@@]2(O)[C@@H](OC(=O)c3ccccc3)C3[C@](C)(C(=O)[C@H](O)C(=C1C)C2(C)C)[C@@H](OC(=O)Nc1ccc(F)c(F)c1)C[C@H]1OC[C@@]31OC(C)=O (stereo partly drawn) [Compound 6404]
[4]
  IC50: < 10 nM
